Structures can show the parent of a compound that is named as a salt.

The IC50 is the concentration at which inhibition is half-maximal.

The target in this experiment is T1, TAFIa (Homo sapiens, UniProt Q96IY4).
T1 construct: purchased Enzyme Research Laboratories
T1 sequence (Q96IY4 115-423): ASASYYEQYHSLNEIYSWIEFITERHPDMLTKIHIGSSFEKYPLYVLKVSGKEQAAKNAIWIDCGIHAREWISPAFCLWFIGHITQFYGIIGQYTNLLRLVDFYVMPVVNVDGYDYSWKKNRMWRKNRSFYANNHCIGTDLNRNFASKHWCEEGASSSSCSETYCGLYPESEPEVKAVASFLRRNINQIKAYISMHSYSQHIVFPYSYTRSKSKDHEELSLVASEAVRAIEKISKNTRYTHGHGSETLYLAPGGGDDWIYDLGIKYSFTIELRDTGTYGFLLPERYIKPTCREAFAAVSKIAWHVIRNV
Briefly: TAFIa inhibition test (Hip-Arg substrate, absorbance at 405 nm). To be noted: 40 minutes at room temperature, read-out: IC50 (TAFIa inhibitory activity). The class given is biochemical. On the procedure: Test 1 [TAFIa Inhibition Test]
Compounds of the present invention were measured for their TAFIa inhibitory activity as follows based on the method described in Thromb. Haemost. 371 (1988).
(a) Preparation of TAFIa Solution
To 450 μl of TAFI (the product of Enzyme Research Laboratories whose concentration was adjusted to 18 μg/ml with buffer A: 100 mM Tris-HCl buffer, pH 7.4), 45 μl of a thrombomodulin solution (a rabbit lung derived thrombomodulin produced by American Diagnostia whose concentration was adjusted to 1 μg/ml with buffer B: 50 mM Tris-HCl, pH 7.5, containing 0.15 M NaCl) and 45 μl of a thrombin solution (a freeze-dried human plasma derived thrombin produced by Sigma and dissolved in water to have a concentration of 30 μ/ml) were added and the mixture was left to stand for 25 minutes at room temperature.
(b) Method of Measuring TAFIa Inhibitory Activity
To wells on a 96-well microplate, the above-prepared TAFIa solution, a test compound, and a substrate solution (Hip-Arg produced by Sigma and dissolved in buffer C of 100 mM Tris-HCl buffer, pH 8.3, to have a concentration of 3.6 mM) were added in respective amounts of 20 μl/well, 10 μl/well, and 70 μl/well. The individual components were mixed well and the reaction was carried out for 40 minutes at room temperature.
Subsequently, a color former (1% cyanuric chloride in 1,4-dioxane) was added in an amount of 50 μl to each well and the plate was left to stand for 3 minutes at room temperature; then, the absorbance at 405 nm was measured with a microplate reader (Spectramax M2 of Molecular Devices). With the absorbance in the absence of a test compound minus the absorbance in the absence of an enzyme being taken as 100%, the concentration of the compound that inhibited 50% of the reaction (IC50) was calculated from the absorbance in the presence of the test compound minus the absorbance in the absence of the enzyme.
For several compounds of the present invention, the above test was conducted and on the basis of the results of measurements, TAFIa inhibitory activity was calculated to give the results shown in Table 2.
As for `NCCCC(Cc1ncn2c1CCc1ccccc1-2)C(=O)O` (stereo not drawn) [Example 1, 5-amino-2-(4,5-dihydroimidazo[1,5-a]quinolin-3-ylmethyl)pentanoic acid], the concentration for half-maximal inhibition (IC50) stood at 95 nM.

For the compound `NCCC[C@@H](Cc1ncn2c1CCc1ccccc1-2)C(=O)O` [Example 2, (2S)-5-amino-2-(4,5-dihydroimidazo[1,5-a]quinolin-3-ylmethyl)pentanoic acid], the IC50 came to 63 nM.

Turning to `NCCC[C@H](Cc1ncn2c1CCc1ccccc1-2)C(=O)O` [Example 3, (2R)-5-amino-2-(4,5-dihydroimidazo[1,5-a]quinolin-3-ylmethyl)pentanoic acid], the IC50 came out at 860 nM.

Consider `NCCCC(Cc1ncn2c1CCCc1ccccc1-2)C(=O)O` (stereo not drawn) [Example 4, 5-amino-2-(5,6-dihydro-4H-imidazo[1,5-a] [1]benzazepin-3-ylmethyl)pentanoic acid], for which the IC50 is 3300 nM.

On to `NCCCC(Cc1ncn2c1COc1ccccc1-2)C(=O)O` (stereo not drawn) [Example 5, 5-amino-2-(4H-imidazo[5,1-c][1,4]benzoxazin-3-ylmethyl)pentanoic acid], for which the IC50 was found to be 1100 nM.

For `NCCCC(Cc1ncn2c1CCc1ccncc1-2)C(=O)O` (stereo not drawn) [Example 6, 5-amino-2-(4,5-dihydroimidazo[1,5-a] [1,7]naphthyridin-3-ylmethyl)pentanoic acid], the half-inhibitory concentration (IC50) stood at 1600 nM.

As for `Cc1cccc2c1-n1cnc(CC(CCCN)C(=O)O)c1CC2` (stereo not drawn) [Example 7, 5-amino-2-[(9-methyl-4,5-dihydroimidazo[1,5-a]quinolin-3-yl)methyl]pentanoic acid dihydrochloride], the IC50 was found to be 6400 nM.

As to `CCc1cccc2c1CCc1c(CC(CCCN)C(=O)O)ncn1-2` (stereo not drawn) [Example 8, 5-amino-2-[(6-ethyl-4,5-dihydroimidazo[1,5-a]quinolin-3-yl)methyl]pentanoic acid], the half-inhibitory concentration (IC50) turned out to be 270 nM.

Turning to `NCCCC(Cc1ncn2c1CCc1c(Cl)cccc1-2)C(=O)O` (stereo not drawn) [Example 9, 5-amino-2-[(6-chloro-4,5-dihydroimidazo[1,5-a]quinolin-3-yl)methyl]pentanoic acid], the IC50 came to 190 nM.

Turning to `Cc1cccc2c1CCc1c(CC(CCCN)C(=O)O)ncn1-2` (stereo not drawn) [Example 10, 5-amino-2-[(6-methyl-4,5-dihydroimidazo[1,5-a]quinolin-3-yl)methyl]pentanoic acid], the IC50 came out at 150 nM.

As to `Cc1ccc2c(c1)CCc1c(CC(CCCN)C(=O)O)ncn1-2` (stereo not drawn) [Example 11, 5-amino-2-[(7-methyl-4,5-dihydroimidazo[1,5-a]quinolin-3-yl)methyl]pentanoic acid dihydrochloride], the IC50 stood at 61 nM.

`Cc1ccc2c(c1)-n1cnc(CC(CCCN)C(=O)O)c1CC2` (stereo not drawn) [Example 12, 5-amino-2-[(8-methyl-4,5-dihydroimidazo[1,5-a]quinolin-3-yl)methyl]pentanoic acid]: the IC50 was 1800 nM.

As to `NCCCCC(C(=O)O)c1ncn2c1CCc1ccccc1-2` (stereo not drawn) [Example 13, 6-amino-2-(4,5-dihydroimidazo[1,5-a]quinolin-3-yl)hexanoic acid], the IC50 was 3300 nM.

Consider `CCOc1ccc2c(c1)CCc1c(CC(CCCN)C(=O)O)ncn1-2` (stereo not drawn) [Example 14, 5-amino-2-[(7-ethoxy-4,5-dihydroimidazo[1,5-a]quinolin-3-yl)methyl]pentanoic acid], for which the 50% inhibitory concentration (IC50) worked out at 110 nM.

On to `NCCCC(Cc1ncn2c1CCc1cc(-c3ccccc3)ccc1-2)C(=O)O` (stereo not drawn) [Example 15, 5-amino-2-[(7-phenyl-4,5-dihydroimidazo[1,5-a]quinolin-3-yl)methyl]pentanoic acid dihydrochloride], for which the IC50 came to 140 nM.

Consider `NCCCC(Cc1ncn2c1CCc1cc(OC3CCCCC3)ccc1-2)C(=O)O` (stereo not drawn) [Example 16, 5-amino-2-{[7-(cyclohexyloxy)-4,5-dihydroimidazo[1,5-a]quinolin-3-yl)methyl]pentanoic acid], for which the IC50 amounted to 180 nM.

With `CCCc1ccc2c(c1)CCc1c(CC(CCCN)C(=O)O)ncn1-2` (stereo not drawn) [Example 17, 5-amino-2-[(7-propyl-4,5-dihydroimidazo[1,5-a]quinolin-3-yl)methyl]pentanoic acid dihydrochloride], the half-inhibitory concentration (IC50) was 67 nM.

On to `NCCCC(Cc1ncn2c1CNc1ccccc1-2)C(=O)O` (stereo not drawn) [Example 18, 5-amino-2-(4,5-dihydroimidazo[1,5-a]quinoxalin-3-ylmethyl)pentanoic acid], for which the IC50 came to 630 nM.

Consider `NCCCC(Cc1ncn2c1CCc1ncccc1-2)C(=O)O` (stereo not drawn) [Example 19, 5-amino-2-(4,5-dihydroimidazo[1,5-a] [1,5]naphthyridin-3-ylmethyl)pentanoic acid], for which the IC50 was found to be 580 nM.

Turning to `CNCCCC(Cc1ncn2c1CCc1ccccc1-2)C(=O)O` (stereo not drawn) [Example 20, 2-(4,5-dihydroimidazo[1,5-a]quinolin-3-ylmethyl)-5-(methylamino)pentanoic acid], the 50% inhibitory concentration (IC50) came to 2300 nM.

Turning to `NCCCC(Cc1ncn2c1Cc1ccccc1C2)C(=O)O` (stereo not drawn) [Example 21, 5-amino-2-(5,10-dihydroimidazo[1,5-b]isoquinolin-1-ylmethyl)pentanoic acid], the 50% inhibitory concentration (IC50) worked out at 1400 nM.

Take `Nc1cc(C(Cc2ncn3c2CCc2ccccc2-3)C(=O)O)ccn1` (stereo not drawn) [Example 22, 2-(2-aminopyridin-4-yl)-3-(4,5-dihydroimidazo[1,5-a]quinolin-3-yl)propanoic acid dihydrochloride]: the IC50 worked out at 5100 nM.

As for `NCCCC(Cc1ncn2c1CCc1ccccc1-2)c1nnn[nH]1` (stereo not drawn) [Example 23, 5-(4,5-dihydroimidazo[1,5-a]quinolin-3-yl)-4-(1H-tetrazol-5-yl)pentan-1-amine], the IC50 stood at 4400 nM.

For the compound `NCCC[C@@H](Cc1ncn2c1CCc1cc(CCC3CCCCC3)ccc1-2)C(=O)O` [Example 24, (25)-5-amino-2-{[7-(2-cyclohexylethyl)-4,5-dihydroimidazo[1,5-a]quinolin-3-yl]methyl}pentanoic acid dihydrochloride], the half-maximal inhibitory concentration (IC50) was 43 nM.

On to `NCCC[C@@H](Cc1ncn2c1CCc1cc(C3CCCCC3)ccc1-2)C(=O)O` [Example 25, (2S)-5-amino-2-[(7-cyclohexyl-4,5-dihydroimidazo[1,5-a]quinolin-3-yl)methyl]pentanoic acid dihydrochloride], for which the IC50 is 28 nM.

As for `NCCC[C@@H](Cc1ncn2c1CCc1cc(F)ccc1-2)C(=O)O` [Example 26, (2S)-5-amino-2-[(7-fluoro-4,5-dihydroimidazo[1,5-a]quinolin-3-yl]methyl}pentanoic acid dihydrochloride], the 50% inhibitory concentration (IC50) turned out to be 72 nM.

For `NCCCC(Cc1ncn2c1CCc1cc(C(F)(F)F)ccc1-2)C(=O)O` (stereo not drawn) [Example 27, 5-amino-2-{[7-(trifluoromethyl)-4,5-dihydroimidazo[1,5-a]quinolin-3-yl]methyl}pentanoic acid dihydrochloride], the 50% inhibitory concentration (IC50) amounted to 410 nM.

`CC(C)c1ccc2c(c1)CCc1c(C[C@H](CCCN)C(=O)O)ncn1-2` [Example 28, (2S)-5-amino-2-[(7-isopropyl-4,5-dihydroimidazo[1,5-a]quinolin-3-yl)methyl]pentanoic acid dihydrochloride]: the IC50 was 33 nM.

For the compound `Cc1ccc2c(c1)CCc1c(C[C@H](CCCN)C(=O)O)ncn1-2` [Example 29, (2S)-5-amino-2-[(7-methyl-4,5-dihydroimidazo[1,5-a]quinolin-3-yl)methyl]pentanoic acid dihydrochloride], the IC50 is 25 nM.

Consider `CCCc1ccc2c(c1)CCc1c(C[C@H](CCCN)C(=O)O)ncn1-2` [Example 30, (S)-5-amino-2-((7-propyl-4,5-dihydroimidazo[1,5-a]quinolin-3-yl)methyl)pentanoic acid dihydrochloride], for which the IC50 amounted to 28 nM.

The values are drawn from patent publication US20110213143A1, “COMPOUND HAVING TAFIA INHIBITORY ACTIVITY” (TAISHO PHARMACEUTICAL CO., LTD., priority 2008, published 2011).
